# Experimental data as given in US12545892B2, “Application of TGF-B inhibitor in inducing neural stem cells and organoid formation” (IREGENE THERAPEUTICS, CO., LTD., priority 2020, dated 2026).
# Key:
# [1] = system: Human pluripotent stem cells; assay: Chemical induction of neural stem cells from pluripotent stem cells (neural rosette formation, cell morphology); type: cell-based
# From the text: Human pluripotent stem cells include embryonic pluripotent stem cells, such as the H9 cell line and human induced pluripotent stem cells. Wherein, the human induced pluripotent stem cells used in the present invention are obtained from the reprogramming of CD34^+ cells, which refers to “reprogramming culture medium and reprogramming induced pluripotent stem cell culture method” (the method in the patent ZL201910050800.7).
# Human pluripotent stem cells are used to coat T25 cell culture flasks with Matrigel ([…] Technologies), and then placed in a 37° C. incubator for more than one hour after plating. Follow 1×10^6 Cells were seeded in T25 flasks for expansion and passage.
# For neural induction, use 50 μg/mL poly-lysine (SIGMA, Cat. No.: P6407) to coat a 6-well culture plate, and incubate at 37° C. for more than 3 hours after plating; then use 5 μg/mL Laminin (SIGMA ALDRICH, Cat. No.: 12020) for further coat, and then place in a 37° C. incubator to incubate for more than 3 hours. When pluripotent stem cells reached 70% coverage, they were digested with EDTA at 37° C. for 5 min, and DMEM was used to stop cell digestion. Cells are washed and centrifuged at 2×10^5 the proportions of each flask and are re-seeded in T25 plates. Neural induction is performed using the medium of the present invention in combination with the neural inducing compound, and the medium is changed every day until the neural stem cell rosette is formed. […] Therefore, the single-molecule inducing method provided by this method can induce pluripotent stem cells to form neural rosette structures more efficiently and uniformly.
# (§1) From the above results, it is known that the differentiation is not complete under the low concentration condition, and many different types of cells can be seen. However, neural stem cells obtained in high concentration condition are easily differentiated and cell stress appears.
# [2] = system: Human pluripotent stem cells; assay: Cyquant assay of cell viability during neural induction; type: cell-based; settings: samples on days 1, 5, 10, 15 and 20; control LSB method; FIG. 1c
# Experimental: (§2) The Cyquant assay was used to perform the quantitative detection of cell viability, thus investigating the effect of LY2157299 on the physiological state of the cells during long-term culture of the cells; Among them, the LSB method was used as the control group. 96-well light-tight cell culture plates were coated; after the coating was complete, cells were seeded separately at 5×10^4 cell number per well and three sets of parallel replicates were set (the average of three sets was calculated as data) to repeat the procedure of example 2.1. Wherein, the culture procedures described previously were incubated at 37° C. with 5% CO2. Samples were taken on days 1, 5, 10, 15 and 20 for cell viability assay using CyQuant Kit (Invitrogen, cat. No: X12223). The aforementioned assay was operated according to the instructions with a Spectramax i3 Multi-Mode Microplate Reader (VWR, model number: ID3-STD) for data reading.
# [3] = system: Sox2, Pax6, Nestin, CASP3; assay: Q-PCR of marker genes during induction from pluripotent stem cells to neural stem cells; type: cell-based, human; settings: different concentrations
# Experimental: Transcriptional changes of different marker genes during induction from pluripotent stem cells to neural stem cells were detected by using Q-PCR. The induced pluripotent stem cells used in this example are neural stem cells derived by LY inducing method and LSB inducing method, respectively. Neural stem cells were prepared as described previously using Rneasy Mini or Micro Kit (QIAGEN) for total RNA extraction, in which […] RNA was used to synthesize cDNA with superscript III First-Strand Synthesis System (Invitrogen).
# All the above data were analyzed with the delta-Ct method. Each set of trials was tested using three sets of replicates, and variance statistics were performed.
# as §1
# [4] = system: neural stem cells obtained by the LY inducing method; assay: Directed differentiation of induced neural stem cells into neurons (immunofluorescence); type: cell-based, human
# Experimental: The neural stem cells obtained by the LY inducing method in Example 2 were subjected to directed differentiation in NouvNeu001 basal medium. For neuronal differentiation, use 50 μg/mL polylysine (SIGMA ALDRICH, Cat. No.: P6407) to coat a 6-well culture plate, and place the plate in a 37° C. incubator and incubate for more than 3 hours until cells are seeded.
# The neural stem cells obtained in example 2 were seeded at a density of 1×10^5 the ratio per flask was inoculated in T25 flasks, and 3 μM CHIR99021 (Selleck, Cat. No.: S2924), 10 μM SU5402 (Tocris, Cat. No.: 3300/1), 10 μM DAPT (Selleck, Cat. No.: S2215) were added to NouvNeu001 basal medium. Fresh medium was replaced every 3 days until day 21. The above cultures were incubated at 37° C. with 5% CO2.
# The neural stem cells obtained in example 2 were seeded at a density of 1×10^5 the ratio per flask was inoculated in T25 flasks, and 1 μM Purmorphamine (Sellek, Cat. No.: S3042) and 1 ng/mL TGF-β3 (Novoprotein, Cat. No.: CJ44) were added to NouvNeu001 basal medium to culture neural stem cells. Fresh medium was replaced every 3 days until day 30. The above cultures were incubated at 37° C. with 5% CO2.
# The neural stem cells obtained in example 2 were seeded at a density of 1×10^5 the ratio per flask was inoculated in T25 flasks, and 0.5 μM retinyl acetate (SIGMA ALDRICH, Cat. No.: R7782) was added to NouvNeu001 basal medium. Fresh medium was replaced every 3 days until day 24. The above cultures were incubated at 37° C. with 5% CO2.
# After induction and differentiation, the cells were harvested and identified by immunofluorescence staining: cells were fixed with 4% paraformaldehyde at room temperature for 40 minutes, washed twice with DPBS buffer; then permeabilized with 0.1% Triton X-100 for 5 minutes, and buffered with DPBS The cells were then washed twice with DPBS buffer containing 10% horse serum and 0.1% Triton X-100 at 4° C. overnight; the cells were washed with DPBS buffer and then washed with 2% horse serum and 0.1% Triton X-100. […]
# [5] = system: MHC associated genes CD4, HLA-A, HLA-C, hla-f, and HLA-DPB1; assay: Q-PCR detection of MHC genes of induced neural stem cells; type: cell-based; settings: compared with human pluripotent stem cells; FIG. 6
# From the text: The major histocompatibility complex (MHC) genes of neural stem cells induced by LY2157299 was detected by Q-PCR method, and pluripotent stem cells (iPS) were used as control.
# HLA-DR = assay: Flow cytometry detection of HLA-DR antigens of induced neural stem cells; type: cell-based, human; settings: FIG. 7
# Experimental: The HLA-DR antigens of neural stem cells induced by LY2157299 were detected by flow cytometry. HLA-DR is an MHC class II molecule whose expression is critical for the antigen-presenting function of cells and plays a key role in adoptive immune responses. The induced neural stem cells obtained in Example 2 were digested with EDTA, washed with DPBS, centrifuged to remove the supernatant, and 10^6 Cells were resuspended in 100 μL of diluted primary antibody (CD45 PerCP, Abeam, Cat. No. ab157309; HLA-DR FITC, CST, Cat. No. 54126), incubated on ice for 1 hour in the dark, centrifuged to remove supernatant, and cells were resuspended in 500 μL of antibody dilution buffer (CST) and analyzed on a flow cytometer. Samples incubated without primary antibody were used as controls. The results are shown in FIG. 7, FIG. 7a is a negative control, FIG. 7b is the HLA-DR detection result of the neural stem cells obtained by LY2157299 induction.
# [6] = system: human induced pluripotent stem cells; assay: Brain organoid culture from induced pluripotent stem cells (formation, diameter); type: cell-based; settings: 12.5 μM in basal medium to day 10, culture to day 120
# Experimental: Organoid culture was performed with human induced pluripotent stem cells. Organoid inducing medium was formulated as follows: NouvNeu basal medium supplemented with 12.5 μM LY2157299. Induced pluripotent stem cells were digested to single cells by Accutase, seeded in U-bottom-ultra-low attachment 96-well plates at a ratio of 9000 cells/[…] of brain organoid inducing medium per well. 10 μM ROCK inhibitor Y-27632 (Selleck, S1049) was added, and the cells were placed in a 37° C., 5% carbon dioxide cell incubator for 24 hours (Panasonic, model: MCO-18AC). Y-27632-free fresh organoid inducing medium was changed the following day until day 10. Day 10 the organoids were transferred to ultra-low-attachment 6-well plates and the medium was changed to NouvNeu001 basal medium supplemented with 2% B27 cell culture additive. The culture was conducted at 37° C. in a 5% CO2 cell culture incubator on a horizontal rotator at 80 rpm until day 120.
# The control experiment was carried out according to the published method (Clair B et. al, Nat Methods. 2019, November; 16 (11): 1169-1175). N2B27 was used as the basic medium for organ like culture. […]
# Organoids were photographed by Leica Dmi8. The brain organoids were photographed and their diameters were measured. […]
# [7] = Freezing point osmometer, osmolality of the culture system; type: physicochemical; settings: sodium chloride concentration 1 μg/mL; FIG. 2a
# From the text: A fully automated freezing point osmometer (FM-8P, Shanghai Yida Instruments Co., Ltd.) was used to detect the effects of different concentrations of sodium chloride on the osmolality of the culture system, and the specific operations were enrolled in the product instructions (FM-8P, Shanghai Yida Instruments Co., Ltd.). The test results are detailed in FIG. 2a. The results illustrate a linear increase with the concentration of sodium chloride and the osmotic pressure of the culture system. However, when the concentration reached 1 μg/mL, the osmolality of the culture system already exceeded the cell culture limit of 320 mOsm/kg.
# [8] = system: Human pluripotent stem cells; assay: CyQuant assay of medium components (cell viability in long-term culture); type: cell-based; settings: different concentrations, FIG. 2b-2c
# Experimental: as §2
compound,measurement,setting,value
"Cc1cccc(-c2nn3c(c2-c2ccnc4ccc(C(N)=O)cc24)CCC3)n1 [LY2157299, 4-(2-(6-methylpyridin-2-yl)-5,6-dihydro-4h-pyrrolo[1,2-b]pyrazol-3-yl) quinoline-6-carboxamide]",cell population obtained by chemical induction,"[1]; 12.5 μM in NouvNeu001 basal medium, FIG. 4d",resulted in a uniform cell population
same,cell population obtained by chemical induction,"[1]; 25 μM in NouvNeu001 basal medium, FIG. 4e",a mixed population of neural cells was obtained
same,cell stress during chemical induction,"[1]; 25 μM, FIG. 4e",cells showed signs of stress with intracellular vacuoles
same,cell population obtained by chemical induction,"[1]; in NouvNeu001 basal medium, FIG. 4c",a mixed population of cells including neural cells was obtained
same,"number of neural cells (cell viability, CyQuant)",[2],induced more number of neural cells compared with LSB method
same,regulation of Pax6 expression by concentration (Q-PCR),[3]; FIG. 4f,positively correlated with Pax6 expression
same,regulation of apoptosis gene CASP3 by concentration (Q-PCR),[3]; FIG. 4g,positively correlated with apoptosis
same,"nociceptor neuron differentiation of induced neural stem cells, marker expression","[4]; CHIR99021, SU5402, DAPT until day 21, FIG. 5a-5c",express the nociceptor neuron specific marker SCNI11A
same,"dopaminergic neuron differentiation of induced neural stem cells, marker expression","[4]; Purmorphamine, TGF-β3 until day 30, FIG. 5d-5f",can express mature dopaminergic neuron specific marker Pitx3
same,"photoreceptor neuron differentiation of induced neural stem cells, marker expression","[4]; retinyl acetate until day 24, FIG. 5g-5i",can express the photoreceptor neuron specific marker OPSIN
same,expression of MHC associated genes in induced neural stem cells (Q-PCR),[5],expressed at extremely low levels
same,HLA-DR antigen expression of induced neural stem cells (flow cytometry),HLA-DR,do not express HLA-DR
same,generation of cerebral organoids,[6],can induce the generation of cerebral organoids
[Cl-].[Na+] [sodium chloride],osmolality of the culture system,[7],> 320 mOsm/kg
"recombinant insulin: component of the basal medium, screened at different concentrations",effect of concentration on cell proliferation (CyQuant),[8],positively correlated with the rate of cell proliferation
